The structures appear in SMILES notation. Activity calls are given as the source filed them. The calls are words filed in the database; no cut-off is given here.

We go through 53 compounds from ChEMBL document CHEMBL5241107, “Discovery of an eIF4A Inhibitor with a Novel Mechanism of Action” (J Med Chem, 2021).

The target in assay [1] is T1, Eukaryotic initiation factor 4A-I (Homo sapiens, UniProt P60842). Nature of the assay: Inhibition of human recombinant N-terminal His6-tagged eIF4A expressed in Escherichia coli BL21 CodonPlus cells using ATP and yeast RNA as substrate preincubated with enzyme for 20 mins followed by susbtrate addition and measured after 4 hrs by Malachite green ATPase assay.
T1 sequence (P60842 whole entry): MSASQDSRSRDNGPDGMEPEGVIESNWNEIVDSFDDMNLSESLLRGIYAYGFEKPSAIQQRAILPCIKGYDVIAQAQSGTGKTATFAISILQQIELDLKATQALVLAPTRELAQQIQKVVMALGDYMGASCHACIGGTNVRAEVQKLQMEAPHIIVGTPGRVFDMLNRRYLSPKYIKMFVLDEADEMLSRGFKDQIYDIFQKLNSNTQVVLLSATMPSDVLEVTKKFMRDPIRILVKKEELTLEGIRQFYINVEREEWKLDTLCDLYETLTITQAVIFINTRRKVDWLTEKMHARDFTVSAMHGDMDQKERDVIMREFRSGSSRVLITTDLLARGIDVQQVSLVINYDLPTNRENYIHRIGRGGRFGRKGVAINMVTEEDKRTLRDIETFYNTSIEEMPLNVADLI
A further assay has as its system BJAB. Nature of the assay: Cytotoxicity against human BJAB cells assessed as reduction in cell viability measured after 72 hrs by CellTiter-Glo luminescent assay. It is filed as functional, cell-based.
For assay [2], the target named is T1, Eukaryotic initiation factor 4A-I. Nature of the assay: Displacement of MANT-ATP from human recombinant N-terminal His6-tagged eIF4A expressed in Escherichia coli BL21 CodonPlus cells at 1 mM preincubated with enzyme and yeast RNA for 20 mins followed by MANT-ATP addition for 30 mins by fluorescence polarization assay. Particulars: time 50.0 min. For orientation: Fluorescence polarisation rises when a labelled molecule tumbles more slowly, as on binding a larger partner.

The target is the same in assay [3]. Nature of the assay: Competitive inhibition of human recombinant N-terminal His6-tagged eIF4A expressed in Escherichia coli BL21 CodonPlus cells assessed as […] with constant Vmax of RNA using 250 uM ATP and varying concentration of yeast RNA as substrate preincubated with enzyme for 20 mins followed by substrate addition and measured after 1 to 7 hrs by Malachite green ATPase assay. Conditions: time 80-440 min.

The target is the same in assay [4]. Nature of the assay: Inhibition of helicase activity of human recombinant N-terminal His6-tagged eIF4A expressed in Escherichia coli BL21 CodonPlus cells using Cy3-labeled RNA strand and unlabeled DNA strand by native PAGE analysis.
The target is the same in assay [5]. Nature of the assay: Uncompetitive inhibition of human recombinant N-terminal His6-tagged eIF4A expressed in Escherichia coli BL21 CodonPlus cells assessed as decrease in Km and Vmax of ATP using varying concentrations of ATP and 250 ug/ml yeast RNA as substrate preincubated with enzyme for 20 mins followed by substrate addition and measured after 1 to 7 hrs by Malachite green ATPase assay. Particulars: time 80-440 min.

For assay [6] the target is unchanged. Nature of the assay: Inhibition of helicase activity of human recombinant N-terminal His6-tagged eIF4A expressed in Escherichia coli BL21 CodonPlus cells assessed as decrease in single stranded signal using Cy3-labeled RNA strand and unlabeled DNA strand by native PAGE analysis.
Assay [7] has the same target. Nature of the assay: Inhibition of helicase activity of human recombinant N-terminal His6-tagged eIF4A expressed in Escherichia coli BL21 CodonPlus cells assessed as increase in double stranded signal using Cy3-labeled RNA strand and unlabeled DNA strand by native PAGE analysis.
Assay [8] relates to Reticulocyte. Nature of the assay: Inhibition of IRES-dependent translation of renilla luciferase in rabbit reticulocyte lysates using bicistronic luciferase reporter [pSP/(CAG)33/FF/HCV/Ren.pA51] at 100 nM incubated for 90 mins by luciferase reporter gene based luminescence analysis. Conditions: Oryctolagus cuniculus. In kind it is functional, subcellular. Background: In a reporter assay the amount or activity of a reporter protein is the signal.

The target of assay [9] is T1, Eukaryotic initiation factor 4A-I. Nature of the assay: Binding affinity to eIF4A in human A549 cells assessed as increase in thermal stability of the protein at 100 nM incubated for 90 mins by CETSA analysis. In kind it is cell-based.
Assay [10] relates to Reticulocyte. Nature of the assay: Inhibition of eIF4A in rabbit reticulocyte lysate assessed as inhibition of cap-dependent translation of firefly luciferase using bicistronic luciferase reporter [pSP/(CAG)33/FF/HCV/Ren.pA51] at 100 nM incubated for 90 mins by luciferase reporter gene based luminescence analysis. It is filed as subcellular. Conditions: Oryctolagus cuniculus.

Assay [11] deals with Reticulocyte. Nature of the assay: Inhibition of cap-dependent translation of firefly luciferase in rabbit reticulocyte lysates using bicistronic luciferase reporter [pSP/(CAG)33/FF/HCV/Ren.pA51] at 600 uM incubated for 90 mins by luciferase reporter gene based luminescence analysis. It is filed as functional, subcellular. Conditions: Oryctolagus cuniculus.
Assay [12] has as its system Reticulocyte. Nature of the assay: Inhibition of IRES-dependent translation of renilla luciferase in rabbit reticulocyte lysates using bicistronic luciferase reporter [pSP/(CAG)33/FF/HCV/Ren.pA51] at 600 uM incubated for 90 mins by luciferase reporter gene based luminescence analysis. In kind it is functional, subcellular. Particulars: Oryctolagus cuniculus.
Setting [13] is: Homo sapiens, BJAB, 72 h, read-out: EC50.

For orientation: IC50 means the concentration that gives 50% inhibition. Usually EC50 stands for the midpoint of the concentration-response curve. `CCCCc1ccc(-c2ccc(-c3cc(C(=O)OCC)c4cc([N+](=O)[O-])ccc4n3)o2)cc1`: the IC50 in assay [1] was greater than 150 µM. Further, the EC50 in the assay with BJAB (setting [13]) is greater than 10 µM. Take `Nc1ncnc2c1ncn2[C@@H]1O[C@H](COP(=O)(O)OP(=O)(O)O)[C@@H](O)[C@H]1O`: in [2], the inhibition entry is “Active”. `CCCCc1ccc(-c2ccc(-c3cc(C(=O)O)c4cccc(C(F)(F)F)c4n3)o2)cc1`: the IC50 in assay [1] was determined as 26.9 µM.

With `O=C(O)c1cc(-c2ccc(-c3cccc4ccccc34)o2)nc2ccc([N+](=O)[O-])cc12`, the IC50 in assay [1] worked out at 36.7 µM. On the same count and under the same terms, to `CCCCc1ccc(-c2ccc(-c3cc(C(=O)O)c4cccc(Br)c4n3)o2)cc1` belongs 23.8 µM. With `Nc1ccc(-c2ccc(-c3cc(C(=O)O)c4cc([N+](=O)[O-])ccc4n3)o2)cc1`, in assay [1], the IC50 is greater than 150 µM. For the same compound, the EC50 entry in the assay with BJAB (bjab) is “Not Active”. Regarding `CCCCc1ccc(-c2ccc(-c3cc(C(=O)O)c4cc(F)ccc4n3)o2)cc1`, the IC50 in [1] turned out to be 54.1 µM.

With `CCCCc1ccc(-c2ccc(-c3cc(C(=O)O)c4cc(Br)ccc4n3)o2)cc1`, the inhibition entry in [3], in assay [5], in assay [6] and in assay [7] was “Active” throughout. Moreover, the EC50 in the assay with BJAB (setting [13]) came out at 2.13 µM. Further, the IC50 in [4] was 28.7 µM. On to `O=C(O)c1cc(-c2ccc(-c3ccccc3)o2)nc2ccc([N+](=O)[O-])cc12`, for which the IC50 in [1] was greater than 150 µM.

Consider `O=C(O)c1cc(-c2ccc(-c3cccc(Oc4ccccc4)c3)o2)nc2ccc([N+](=O)[O-])cc12`, for which the IC50 in assay [1] came to 22.2 µM.

`O=C(O)c1cc(-c2ccc(-c3ccccc3Oc3ccccc3)o2)nc2ccc([N+](=O)[O-])cc12`: the IC50 in [1] was found to be 21 µM. Same read-out and setting: to `CCCCc1ccc(-c2cccc(-c3cc(C(=O)O)c4cc([N+](=O)[O-])ccc4n3)c2)cc1` belongs 74.1 µM; to `CCCCc1ccc(-c2ccc(-c3cc(C(=O)O)c4cc([N+](=O)[O-])ccc4n3)cn2)cc1`, 60 µM. `CCCCc1ccc(-c2ccc(-c3cc(C(=O)O)c4cc(F)c(F)cc4n3)o2)cc1`: the IC50 in assay [1] was 54 µM.

In the case of `CCCCc1ccc(-c2cncc(-c3cc(C(=O)O)c4cc([N+](=O)[O-])ccc4n3)c2)cc1`, in assay [1], the IC50 is greater than 150 µM. Regarding `CCCCc1ccc(-c2ccc(-c3cc(C(=O)O)c4cc(C)cc(C)c4n3)o2)cc1`, the IC50 in assay [1] came to 111 µM. As for `CCCCc1ccc(-c2ccc(-c3cc(C(=O)O)c4cc(N)ccc4n3)o2)cc1`, the IC50 in assay [1] is greater than 150 µM. Also, in the assay with BJAB (bjab), the EC50 entry is “Not Active”. As to `O=C(O)c1cc(-c2ccc(-c3cccc(-c4ccccc4)c3)o2)nc2ccc([N+](=O)[O-])cc12`, the IC50 in assay [1] turned out to be 25.8 µM. Same read-out and setting: the value for `CCCCc1ccc(-c2ccc(-c3cc(C(=O)O)c4cc(CC)ccc4n3)o2)cc1` was 147 µM. Consider `CCCCc1ccc(-c2ccc(-c3cc(C(=O)O)c4cc(NC(C)=O)ccc4n3)o2)cc1`, for which, in [1], the IC50 came to 126 µM. In the assay on BJAB (bjab), the EC50 entry is reported as “Not Active”.

With `CCCCc1ccc(-c2ccc(-c3cc(C(=O)O)c4cc(OC(F)(F)F)ccc4n3)o2)cc1`, in assay [1], the IC50 is greater than 150 µM. Same read-out and setting: to `CCCCc1ccc(-c2ccc(-c3cc(C(=O)O)c4cc(Cl)c(Cl)cc4n3)o2)cc1` belongs 90.1 µM; to `CCCCc1ccc(-c2ccc(-c3cc(C(=O)O)c4cc(Cl)ccc4n3)o2)cc1`, 44 µM; to `CCCCCc1ccc(-c2ccc(-c3cc(C(=O)O)c4cc([N+](=O)[O-])ccc4n3)o2)cc1`, 8.77 µM. For `CCCCc1ccc(-c2ccc(-c3cc(C(=O)O)c4c(Cl)cccc4n3)o2)cc1`, the IC50 in assay [1] came to 135 µM. Still for that read-out and setting: to `O=C(O)c1cc(-c2ccc(-c3ccc(-c4ccccc4)cc3)o2)nc2ccc([N+](=O)[O-])cc12` belongs 66.1 µM. As to `CCCCc1ccc(-c2ccc(-c3cc(C(=O)O)c4cc(I)ccc4n3)o2)cc1`, the IC50 in assay [1] is 41.5 µM. Same read-out and setting: to `CCCCc1ccc(-c2ccc(-c3cc(C(=O)O)c4cc(OC)ccc4n3)o2)cc1` belongs 53.5 µM; to `CCCCc1ccc(-c2ccc(-c3cc(C(=O)O)c4cc(C(C)C)ccc4n3)o2)cc1`, 107 µM; to `CCCOc1ccccc1-c1ccc(-c2cc(C(=O)O)c3cc([N+](=O)[O-])ccc3n2)o1`, 45.5 µM. Same read-out and setting: the value for `CCCOc1cccc(-c2ccc(-c3cc(C(=O)O)c4cc([N+](=O)[O-])ccc4n3)o2)c1` was 62.1 µM; that for `CCCCc1ccc(-c2ccc(-c3cc(C(=O)O)c4ccccc4n3)o2)cc1` was greater than 150 µM. Regarding `O=C(O)c1cc(-c2ccc(-c3ccc(Oc4ccccc4)cc3)o2)nc2ccc([N+](=O)[O-])cc12`, in assay [1], the IC50 turned out to be 12.7 µM. As for `CC(C)(C)OC(=O)Nc1cccc(-c2ccc(-c3cc(C(=O)O)c4cc([N+](=O)[O-])ccc4n3)o2)c1`, the IC50 in assay [1] was determined as 110 µM. The same measure, in the same setting: to `CCCCc1ccc(-c2ccc(-c3cc(C(=O)O)c4cc(-c5ccccc5)ccc4n3)o2)cc1` belongs 124 µM; to `CCCCc1ccc(-c2ccc(-c3cc(C(=O)O)c4cc([N+](=O)[O-])ccc4n3)cc2)cc1`, 54.8 µM; to `CC(C)(C)OC(=O)Nc1ccc(-c2ccc(-c3cc(C(=O)O)c4cc([N+](=O)[O-])ccc4n3)o2)cc1`, 140 µM.

In the case of `CCCCc1ccc(-c2ccc(-c3cc(C(=O)O)c4ccc(C(F)(F)F)cc4n3)o2)cc1`, the IC50 in assay [1] is 61 µM. Still for that read-out and setting: the value for `O=C(O)c1cc(-c2ccc(-c3ccc4c(c3)OCO4)o2)nc2ccc([N+](=O)[O-])cc12` was greater than 150 µM; that for `CCCCc1ccc(-c2ccc(-c3cc(C(=O)O)c4cc(C)ccc4n3)o2)cc1` was 105 µM; that for `CCCCc1ccc(-c2ccc(-c3cc(C(=O)O)c4ccc(Br)cc4n3)o2)cc1` was 33 µM.

Regarding `CCCOc1ccc(-c2ccc(-c3cc(C(=O)O)c4cc([N+](=O)[O-])ccc4n3)o2)cc1`, in [1], the IC50 was 45.7 µM. Consider `COC(=O)[C@H]1[C@@H](O)[C@@]2(O)c3c(OC)cc(O[C@@H]4O[C@@H]([C@H](O)CO)CO[C@H]4OC)cc3O[C@@]2(c2ccc(OC)cc2)[C@@H]1c1ccccc1`, for which the inhibition result with Reticulocyte [8] was “inactive”. Besides, in assay [9], the outcome was Active. Further, the inhibition entry in the assay with Reticulocyte [10] was “Active”. `C[C@@H]1C[C@@H]([C@H](O)CC2CC(=O)NC(=O)C2)C(=O)[C@@H](C)C1`: the inhibition entry in the assay with Reticulocyte [11] and with Reticulocyte [12] was “Active” in each case. As to `CCCc1ccc(-c2ccc(-c3cc(C(=O)O)c4cc([N+](=O)[O-])ccc4n3)o2)cc1`, the IC50 in assay [1] worked out at 40.9 µM. `Nc1cccc(-c2ccc(-c3cc(C(=O)O)c4cc([N+](=O)[O-])ccc4n3)o2)c1`: the IC50 in assay [1] is greater than 150 µM. In addition, the EC50 result in the assay with BJAB (bjab) is listed as “Not Active”.

Regarding `CCCCc1ccc(-c2cccc(-c3cc(C(=O)O)c4cc([N+](=O)[O-])ccc4n3)n2)cc1`, the IC50 in assay [1] was determined as 85.8 µM. On to `CCCCc1ccc(-c2ccc(-c3cc(C(=O)O)c4cccc(Cl)c4n3)o2)cc1`, for which the IC50 in assay [1] is 73.3 µM.

For `CCCCc1ccc(-c2ccc(-c3cc(C(=O)O)c4ccc(F)cc4n3)o2)cc1`, the IC50 in assay [1] was determined as 46.6 µM. As for `CCCCc1ccc(-c2ccc(-c3cc(C(=O)O)c4cc([N+](=O)[O-])ccc4n3)[nH]2)cc1`, in assay [1], the IC50 is 62.5 µM. On the same count and under the same terms, the value for `CCCCc1ccc(-c2ccc(-c3cc(C(=O)OCC)c4cc(Br)ccc4n3)o2)cc1` was 129 µM. Regarding `CCCCc1ccc(-c2ccc(-c3cc(C(=O)O)c4cccc([N+](=O)[O-])c4n3)o2)cc1`, the EC50 in assay [1] is 27.5 µM.

In the case of `CCCCc1ccc(-c2ccc(-c3cc(C(=O)O)c4cc([N+](=O)[O-])ccc4n3)s2)cc1`, in assay [1], the IC50 amounted to 62.3 µM.
